Measured values as given in US10323020B2, “Substituted piperidinyl tetrahydroquinolines” (Bayer Pharma Aktiengesellschaft, priority 2013, dated 2019).
Where a name gives a salt, the structure may show the parent alone.

Experiments:
[1] = biological target: recombinant human α2C receptor (Homo sapiens (Human), UniProt P18825); test: Antagonism against the adrenoreceptor α2C (luminescence, noradrenaline-stimulated CHO cells); assay type: cell-based; settings: noradrenaline 20 nM; CHO cell line with Gαqi3 and mtOb
recombinant human α2C receptor, sequence (P18825 whole entry, the tested form may be a part): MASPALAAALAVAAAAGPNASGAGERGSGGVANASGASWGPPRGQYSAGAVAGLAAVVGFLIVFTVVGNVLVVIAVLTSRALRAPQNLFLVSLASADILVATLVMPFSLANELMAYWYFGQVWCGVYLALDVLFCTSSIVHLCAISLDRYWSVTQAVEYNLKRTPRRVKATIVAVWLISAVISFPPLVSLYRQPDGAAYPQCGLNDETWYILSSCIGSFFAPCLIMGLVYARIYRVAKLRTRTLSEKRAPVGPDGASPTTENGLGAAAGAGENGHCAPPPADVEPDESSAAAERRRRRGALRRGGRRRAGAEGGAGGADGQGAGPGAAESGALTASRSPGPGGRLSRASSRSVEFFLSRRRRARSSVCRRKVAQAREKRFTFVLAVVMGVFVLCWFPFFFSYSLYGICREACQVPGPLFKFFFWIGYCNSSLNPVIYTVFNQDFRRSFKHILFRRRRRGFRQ
Method: Antagonism against the adrenoreceptor α1A was tested using a recombinant human α1A receptor CHO cell line which additionally also recombinantly expresses mtAeq (mitochondrial aequorin). Antagonism against the adrenoreceptor α2A was tested using a recombinant human α2A-Gα16 receptor fusion protein CHO cell line (PerkinElmer Life Sciences) which additionally also recombinantly expresses mtAeq. Antagonism against the adrenoreceptor α2B was tested using a recombinant human α2B receptor CHO cell line (PerkinElmer Life Sciences) which additionally also recombinantly expresses mtAeq. Antagonism against the adrenoreceptor α2C was tested using a recombinant human α2C receptor CHO cell line which additionally also recombinantly expresses a chimaric G protein (Gαqi3) and mtOb (mitochondrial obelin).
The cells were cultivated at 37° C. and 5% CO2 in Dulbecco's modified Eagle's Medium/NUT mix F12 with L-glutamine which additionally contains 10% (v/v) inactivated foetal calf serum, 1 mM sodium pyruvate, 0.9 mM sodium bicarbonate, 50 U/ml penicillin, 50 μg/ml streptomycin, 2.5 μg/ml amphotericin B and 1 mg/ml Geneticin. The cells were passaged with enzyme-free Hank's-based cell dissociation buffer. All cell culture reagents used were from Invitrogen (Carlsbad, USA).
Luminescence measurements were carried out on white 384-well microtitre plates. 2000 cells/well were plated in a volume of 25 μl and cultivated for one day at 30° C. and 5% CO2 in cell culture medium with coelenterazine (α2A and α2B: 5 μg/ml; α1a/c and α2C: 2.5 μg/ml). Serial dilutions of the test substances (10 μl) were added to the cells. After 5 minutes, noradrenaline was added to the cells (35 μl; final concentrations: 20 nM (α1a/c and α2C) or 200 nM (α2A and α2B)), and the emitted light was measured for 50 seconds using a CCD (charge-coupled device) camera (Hamamatsu Corporation, Shizuoka, Japan) in a light-tight box. The test substances were tested up to a maximum concentration of 10 μM. The IC50 values were calculated from the appropriate dose-response curves.

[2] = system: conscious female Wistar rats; test: Radiotelemetric measurement of blood pressure and heart rate of conscious rats; assay type: in vivo, rat; settings: oral 10 mg/kg
Source text: A commercially available telemetry system from Data Sciences International DSI, USA, was employed for the measurements on conscious rats described below. The system consists of 3 main components: (1) implantable transmitters (Physiotel® telemetry transmitter), (2) receivers (Physiotel® receiver), which are linked via a multiplexer (DSI Data Exchange Matrix) to a (3) data acquisition computer. The telemetry system makes it possible to continuously record blood pressure, heart rate and body motion of conscious animals in their usual habitat.
The studies were conducted on adult female Wistar rats with a body weight of >200 g. After transmitter implantation, the experimental animals were housed singly in type III Makrolon® cages. They had free access to standard feed and water. The day/night rhythm in the test laboratory was set by changing the illumination of the room.
The telemetry transmitters used (PA-C40, DSI) were surgically implanted under aseptic conditions in the experimental animals at least 14 days before the first experimental use.
For the implantation, the fasted animals were anaesthetized with isoflurane (IsoFlo®, Abbott, initiation 5%, maintenance 2%) and shaved and disinfected over a large area of their abdomens. […]
Each of the instrumented rats living in the system was assigned a separate receiving antenna (RPC-1 Receiver, DSI). […] The signals emitted were detected online by a data acquisition system (Dataquest™ A.R.T. for Windows, DSI) and processed accordingly.
In the standard procedure, the following were measured for 10-second periods in each case: (1) systolic blood pressure (SBP), (2) diastolic blood pressure (DBP), (3) mean arterial pressure (MAP) and (4) heart rate (HR) and (5) activity (ACT). These parameters were measured over 24 hours after administration.
The acquisition of measurements was repeated under computer control at 5-minute intervals. The source data obtained as absolute values were corrected in the diagram with the currently measured barometric pressure (Ambient Pressure Reference Monitor, APR-1, DSI). […]

[3] = system: diabetic (ZDFfa/fa) and healthy rats (Wistar); test: Assay of perfusion-enhancing substances (microcirculation), laser doppler at the paw; assay type: in vivo, rat
Source text: In diabetic (ZDFfa/fa) and healthy rats (Wistar), a laser doppler probe was fastened under anaesthesia conditions (isoflurane anaesthesia) at the sole of the paw for measuring cutaneous microcirculation. The test animals were once treated orally with the test substances. During the experiment, microperfusion and temperature of the lower extremities were documented continuously. Here, a temperature-sensitive laser doppler probe (Periflux, O2C) was fastened with adhesive to the paws of the animals, allowing the measurement of microperfusion and skin temperature. The microcirculation measurement values were measured on both paws 30 min after oral administration of the test substance. […] Also stated is the MED for the significant increase of skin temperature (ttest).
Microcirculation data for adrenoreceptor α2C receptor antagonist of the compound of Example 8 and for the comparative substance ORM12741, an AR α2c receptor antagonist from Orion, are shown in Table 3: […]

Question: With `CC1CN(c2ncc(C(=O)N3CCC(N4CCc5ccccc5C4)CC3)cn2)CC(C)O1` (stereo not drawn) [Example 13, [4-(3,4-Dihydroisoquinolin-2(1H)-yl)piperidin-1-yl][2-(2,6-dimethylmorpholin-4-yl)pyrimidin-5-yl]methanone (Cis Isomer)] as the molecule, how does the IC50 [1] read?
Answer: 47 nM

Question: For `CCC(COC)Nc1ncc(C(=O)N2CCC(N3CCc4ccc(F)cc4C3)CC2)cn1` (racemic) [Example 2, (rac)-[4-(7-Fluoro-3,4-dihydroisoquinolin-2(1H)-yl)piperidin-1-yl]{2-[(1-methoxybutan-2-yl)amino]pyrimidin-5-yl}methanone], which IC50 [1] is on record?
Answer: 26 nM

Question: With `O=C(c1cnc(N2CCS(=O)(=O)CC2)nc1)N1CCC(N2CCc3ccccc3C2)CC1` [Example 12, [4-(3,4-Dihydroisoquinolin-2(1H)-yl)piperidin-1-yl][2-(1,1-dioxidothiomorpholin-4-yl)pyrimidin-5-yl]methanone] as the molecule, how does the IC50 [1] read?
Answer: 26 nM

Question: How did the IC50 [1] turn out when `CCC(COC)Nc1ncc(C(=O)N2CCC(N3CCc4ccccc4C3)CC2)cn1` (racemic) [Example 6, (rac)-[4-(3,4-Dihydroisoquinolin-2(1H)-yl)piperidin-1-yl]{2-[(1-methoxybutan-2-yl)amino]pyrimidin-5-yl}methanone] was run?
Answer: 31 nM

Question: What does the source list for `COC[C@@]1(C)CCCN2CCc3c(oc4ccccc34)[C@@H]21` [ORM-12741, reference compound]?
Answer: blood pressure [2]: additional reduction in blood pressure; factor by which microcirculation is improved at the MED compared to placebo ([3]; single oral dose at MED, 30 min after administration): 1.9 x; MED microcirculation ([3]; single oral dose, measured 30 min after administration, significant vs placebo): 0.1 mg/kg; MED skin temperature ([3]; single oral dose, significant increase of skin temperature (ttest)): 0.01 mg/kg

Question: For `COCCNc1ncc(C(=O)N2CCC(N3CCc4ccccc4C3)CC2)cn1` [Example 1, [4-(3,4-Dihydroisoquinolin-2(1H)-yl)piperidin-1-yl]{2-[(2-methoxyethyl)amino]pyrimidin-5-yl}methanone], which IC50 [1] is on record?
Answer: 82 nM

Question: With `O=C(O)[C@H]1CCCN1c1ncc(C(=O)N2CCC(N3CCc4ccccc4C3)CC2)cn1` [Example 11, 1-(5-{[4-(3,4-Dihydroisoquinolin-2(1H)-yl)piperidin-1-yl]carbonyl}pyrimidin-2-yl)-D-proline Hydrochloride] as the molecule, how does the IC50 [1] read?
Answer: 96 nM

Question: Which IC50 [1] does the source give for `COc1ccc2c(c1)CCN(C1CCN(C(=O)c3cnc(N4CC5(COC5)C4)nc3)CC1)C2` [Example 10, [4-(6-Methoxy-3,4-dihydroisoquinolin-2(1H)-yl)piperidin-1-yl][2-(2-oxa-6-azaspiro[3.3]hept-6-yl)pyrimidin-5-yl]methanone] here?
Answer: 30 nM

Question: With `CC1CN(c2ncc(C(=O)N3CCC(N4CCc5ccccc5C4)CC3)cn2)CC(C)O1` (stereo not drawn) [Example 14, [4-(3,4-Dihydroisoquinolin-2(1H)-yl)piperidin-1-yl][2-(2,6-dimethylmorpholin-4-yl)pyrimidin-5-yl]methanone (Trans Isomer)] as the molecule, how does the IC50 [1] read?
Answer: 24 nM

Question: `O=C(c1cnc(N2CC3(COC3)C2)nc1)N1CCC(N2CCc3ccc(F)cc3C2)CC1` [Example 9, [4-(7-Fluoro-3,4-dihydroisoquinolin-2(1H)-yl)piperidin-1-yl][2-(2-oxa-6-azaspiro[3.3]hept-6-yl)pyrimidin-5-yl]methanone] was tested. Which IC50 [1] did it give?
Answer: 16 nM

Question: Which IC50 [1] does the source give for `CCC(COC)Nc1ncc(C(=O)N2CCC(N3CCc4ccc(OC)cc4C3)CC2)cn1` (racemic) [Example 4, (rac)-{2-[(1-Methoxybutan-2-yl)amino]pyrimidin-5-yl}[4-(7-methoxy-3,4-dihydroisoquinolin-2(1H)-yl)piperidin-1-yl]methanone] here?
Answer: 5 nM

Question: How did the IC50 [1] turn out when `CC1(C)CN(c2ncc(C(=O)N3CCC(N4CCc5ccccc5C4)CC3)cn2)CCO1` [Example 15, [4-(3,4-Dihydroisoquinolin-2(1H)-yl)piperidin-1-yl][2-(2,2-dimethylmorpholin-4-yl)pyrimidin-5-yl]methanone] was run?
Answer: 68 nM

Question: Which IC50 [1] does the source give for `CCC(COC)Nc1ncc(C(=O)N2CCC(N3CCc4cc(OC)ccc4C3)CC2)cn1` (racemic) [Example 5, (rac)-{2-[(1-Methoxybutan-2-yl)amino]pyrimidin-5-yl}[4-(6-methoxy-3,4-dihydroisoquinolin-2(1H)-yl)piperidin-1-yl]methanone] here?
Answer: 20 nM

Question: How did the IC50 [1] turn out when `CCC(CO)Nc1ncc(C(=O)N2CCC(N3CCc4ccccc4C3)CC2)cn1` (racemic) [Example 7, (rac)-[4-(3,4-Dihydroisoquinolin-2(1H)-yl)piperidin-1-yl]{2-[(1-hydroxybutan-2-yl)amino]pyrimidin-5-yl}methanone] was run?
Answer: 68 nM
